Results from patent US8815219B2, “Sunless tanning with pyranones and furanones” (Conopco, Inc., priority 2009, dated 2014).

Tests used:
[1] = Dissolution of Allomaltol in the aqueous composition; type: physicochemical; conditions: 3 wt.% Allomatol in 5% DHA, 5% glycine, balance water (Example 3 Sample 5)
From the text: (§1) Compositions comprising Allomaltol were made by mixing the following: […]

[2] = Visual observation and photographs of tanning rate (color formation) in DHA/glycine compositions; conditions: Allomaltol 0.5-3 wt.% added to 5% DHA, 5% glycine in water; visual observations and photographs
From the text: as §1

[3] = Color development of DHA/glycine compositions by spectrophotometer at 400 nm; conditions: for enhancement in tanning: Example 6, conclusion from 6 and 27 hour results, DHA 5%, glycine 5%
Protocol: Color development for the above was also assessed using a spectrophotometer set at a wavelength of 400 nm. […] Compositions comprising KOjic acid or Allomaltol were made by mixing the following ingredients at room temperature. […] Visual observation and photographs were taken after 27 hours of mixing. […] 35%, 38% and 19%, respectively, as determined by assessing the Samples with a Spectrophotometer, wavelength 400 nm. […] Compositions were made by mixing the following ingredients at room temperatures. […] All percents are by weight. The Samples were assessed for color development (with a Spectrophometer, 400 nm wavelength) three (3) days after mixing. […] The following compositions were mixed in a manner similar to the one described in Example 7. The Samples were assessed (with a Spectrophotometer, 400 nm wavelength) fifteen (15) hours after mixing.

[4] = 400 nm, after 20 hours of mixing, 5% DHA, 5% glycine

Question: Which Allomatol dissolved [1] does the source give for `Cc1cc(=O)c(O)co1` [Allomaltol, 3-hydroxy-6-methyl, 4-pyrone] here?
Answer: Its Allomatol dissolved is “***= circa 95% Allomatol was dissolved”.

Question: What about the “tanning rate (color formation)” value [2] of the same compound?
Answer: Its value is “enhanced”.

Question: And the “color development at 3% Allomaltol greater than at 0.5% Allomaltol” value [3, 4]?
Answer: Its value is 45%.

Question: What about the “color development at 3% Allomaltol greater than at 1% Allomaltol” value [3, 4] of the same compound?
Answer: Its value is 40%.

Question: And the “color development at 3% Allomaltol greater than at 2% Allomaltol” value [3, 4]?
Answer: Its value is 20%.

Question: What about the “color development at 3% Allomaltol greater than composition deplete of adjuvant” value [3, 4] of the same compound?
Answer: Its value is 60%.

Question: What about the enhancement in tanning [3] of the same compound?
Answer: The enhancement in tanning was “enhancement in tanning”.

Question: With `Cc1cc(=O)c(NCC(=O)O)co1` [adjuvant] as the compound, how does the “color body generation with glycine and no DHA” value ([3]; Example 8, 0.5% adjuvant, 5% glycine, fifteen hours after mixing) read?
Answer: The value was “No color body generation”.

Question: Which “color body generation with glycine and no DHA” value ([3]; Example 7, 0.25% chlorinated adjuvant, 5% glycine, three days after mixing) does the source give for `O=c1cc(CCl)occ1O` [chlorinated adjuvant] here?
Answer: Its value is “No color body generation”.

Question: Which enhancement in tanning [3] does the source give for `O=c1cc(CO)occ1O` [Kojic acid] here?
Answer: Its enhancement in tanning is “enhancement in tanning”.
